Laboratory results from a melting point compilation (Tetko et al.; mined from patent text by program, amines drawn as free bases though some values may be those of a salt).

Row | SMILES | melting point [°C]
1 | Cc1cccc(S(=O)(=O)NC(=O)NCCCCCCNC(=O)NS(=O)(=O)c2cccc(Cl)c2)c1 | 187 to 189
2 | N#CCCCCCc1nc(-c2ccc(Cl)cc2)c(-c2ccc(Cl)cc2)o1 | 108
3 | COc1ccc(C(=O)c2c(-c3ccc(O)cc3)sc3cc(O)ccc23)cc1 | 138 to 140
4 | CCOC(=O)C(NC(=O)CO)C(=O)OCC | 74 to 74.5
5 | CC(C)(C)OC(=O)N1CC[C@H](c2ccc3c(c2)OCO3)[C@@H](O)C1 (racemic) | 112
6 | CC(C(=O)N(C)CCO)c1cc(C(C)(C)C)c(O)c(C(C)(C)C)c1 (stereo not given) | 66
7 | Cc1ccccc1CC(=NC#N)NC(NC(=O)CF)C(C)(C)C (stereo not given) | 151 to 152
8 | Cc1nc(-c2cc(C#N)c(=O)[nH]c2C)cs1 | 305 to 307
9 | CC(=O)Nc1ccc(S(F)(F)(F)(F)F)cc1[N+](=O)[O-] | 135 to 138
10 | O=C(c1ccccc1)c1ccc2c(c1)C1(c3ccccc3-2)c2ccccc2-c2ccc(C(=O)c3ccccc3)cc21 | 260 to 261
11 | O=C1Nc2cc3c(cc2SC1CCCN1CCN(c2ccc(F)cc2)CC1)OCO3 (stereo not given) | 175 to 177
12 | CCC(C)C(C(=O)NS(C)(=O)=O)c1nc(OC)cc(OC)n1 (stereo not given) | 97 to 101
13 | Cc1ccc(O)cc1C=O | 116 to 118
14 | Cc1nc(Cl)c2c(C)c(C)n(-c3c(Br)cc(C(F)(F)F)cc3Br)c2n1 | 202 to 204
15 | Nc1nc(Cl)c2ncn(CC3CCOCO3)c2n1 (stereo not given) | 169 to 170
16 | Cc1cc2c(cc1-n1cccc1)OC(=O)C2C (stereo not given) | 61 to 63
17 | CC(=O)O[C@H]1CS[C@H](C(=O)O)O1 (relative stereo) | 111
18 | COc1cc2c(cc1N)CCCC2 | 121
19 | CC(C)[Si](O[C@@H](CO)[C@H](CC1CCCCC1)NC(=O)OC(C)(C)C)(C(C)C)C(C)C | 61 to 63
20 | CC(CCC(F)C(C)(C)O)C1CCC2C3CC=C4CC(O)CC(O)C4(C)C3CCC12C (stereo not given) | 156 to 158
21 | CC(C)(C)OC(=O)c1ncn2c1[C@@H]1CCCN1C(=O)c1c(I)cccc1-2 | 241 to 242
22 | COc1ccc(Sc2ccc3c(c2)OCC(=O)N3)cc1OC | 97 to 98

Row | SMILES | melting point [°C]
23 | NS(=O)(=O)Oc1cccc([N+](=O)[O-])c1 | 118 to 120
24 | Cc1cc(CCCCCOc2c(C)cc(-c3nc(C)no3)cc2C)on1 | 54 to 56
25 | COCCOc1ccc(CCl)c(Oc2ncc(C(F)(F)F)cc2Cl)c1 | 108 to 111
26 | Cc1cc(-c2nc3cc(OCCOC(C)C)cc(OCCOC(C)C)c3c(=O)[nH]2)cc(C)n1 | 124 to 125
27 | N#Cc1cc(-n2ccc(-c3ccc(F)cc3)n2)cc(S(N)(=O)=O)c1 | 184 to 185
28 | C=CC(=O)Oc1c(C(C)c2cc(C(C)(C)C)cc(C(C)(C)C)c2O)cc(C(C)(C)C)cc1C(C)(C)C (stereo not given) | 190 to 192
29 | CC(C)(C)NC(=O)c1nn(-c2ccc(Cl)cc2F)c2c1C1CCC2C1 (stereo not given) | 148 to 152
30 | Brc1ccc2c(c1)N=C(N1CCN(c3ccccc3)CC1)c1cccc3c1N2CC3 | 171 to 173
31 | Cc1nc(N)c2nc(C)n(NC3CCCCC3)c2c1C | 242 to 244
32 | COC1=CC(=O)CN(C)C1 | 71 to 72
33 | CCCCCCCCCCN1C(=O)C=CC1=O | 48 to 49
34 | CCCCCCCCCCCC#Cc1ccoc1C=O | 56 to 57
35 | COc1cc2c(cc1Nc1ncc(Cl)c(Nc3ccc(N(C)C)cc3OC)n1)CCN(CC(=O)N1CCN(C)CC1)CC2 | 145
36 | CC(C)OC(=O)Nc1cccc(-c2ccnc3c(C(=O)C4CCCC4)cnn23)c1 | 57 to 59
37 | CC1(C)CCC(C)(C)c2cc(C=O)c(F)cc21 | 119 to 120
38 | N#Cc1c[nH]cc1-c1cccc2c1OCO2 | 206 to 208
39 | CCN1CCC(O)(c2cccc(OC)c2)CC1 | 86.7 to 91.1
40 | CC(C)(C)OC(=O)N1C[C@@H]([C@H]2COC(C)(C)O2)CC1=O | 106 to 108
41 | N#Cc1cc(N)ccc1N1CCC(N2CCCCC2)CC1 | 110 to 112
42 | CC/C=C\CCCCCCCCCCOc1ccc(C(C)=O)o1 | 36 to 38
43 | Cn1cc(O)c(=O)c2ccc(Cl)cc21 | 225 to 228
44 | O=C(C1CC1)N1CCc2cc(S(=O)(=O)N3CCN(c4cccc(Cl)c4)CC3)ccc21 | 162 to 163

Now from value to compound:

Row | melting point [°C] | SMILES
45 | 150 to 152 | Cc1cc(CNC(=O)c2ccnc(N3CCN(Cc4ccc(F)cc4)C3=O)c2)nn1C
46 | 203 to 205 | CCOC(=O)c1c[nH]c(-c2ccccc2OCc2ccccc2)n1
47 | 170 to 171 | Cc1ccccc1NC(=O)CN1CC2CCC(C1)N2S(=O)(=O)c1ccccc1Cl
48 | 104 to 107 | CN(C)C(=S)C(O)c1ccc(OCc2ccccc2)cc1 (stereo not given)
49 | 92 | COCc1ccn2nc(SCc3ccccc3)nc2n1
50 | 148 to 150 | CC(=O)N(C(C)=O)c1ccc(C=Cc2ccc3ccccc3n2)cc1
51 | 134 to 136 | CCc1noc(CC(=O)c2ccccc2)c1C(=O)NC
52 | 169 to 170 | CCN(CC)CC1CCCCN1CCNC(=O)N1c2cc(Cl)ccc2C(=O)Nc2cccnc21 (stereo not given)
53 | 119 | CCN(CC)c1ccc(C(=NCCO[N+](=O)[O-])NC#N)cn1
54 | 125 to 127 | Oc1cccc(OCCn2ccnc2)c1
55 | 81.6 to 83.6 | C[C@H]1C=CC(S(=O)(=O)c2ccccc2)=C[C@H](C)[C@H]1O[Si](C)(C)C(C)(C)C
56 | 165 | O=C(c1ccccc1O)c1cccc2[nH]ccc12
57 | 114 to 115 | Cc1cc(CSCCNC(=C[N+](=O)[O-])NCC(O)c2ccccc2)sc1CN(C)C (stereo not given)
58 | 239 | CC(C)(C)OC(=O)N1CC=C(C#Cc2ccc3c(c2)NC(=O)CC(c2cccc(C#N)c2)=N3)CC1
59 | 165 to 167 | COc1ccc(C(=O)c2[nH]c(=O)[nH]c2CN(C)C)cc1
60 | 48 to 51 | CN(C)C(=O)N(C)c1nnc(SCc2ccccc2)s1
61 | 87.6 | CC(C)(C)[Si](C)(C)O[C@@H](CCCC(=O)N1C(=O)OC[C@@H]1Cc1ccccc1)c1ccc(F)cc1
62 | 233 to 234 | N=C(N)N1CCC2c3ccccc3CN21 (stereo not given)
63 | 118 | Cc1ccc(C(=O)Cn2cncn2)cc1

Row | melting point [°C] | SMILES
64 | 114 to 116 | Cn1ccnc1COc1ccccc1N
65 | 193 to 194 | Cc1ccc(C(=O)Nc2c(NC(=O)CN3CCCC3)ccc3c2C(=O)c2ccccc2C3=O)cc1
66 | 214 to 216 | Cn1cnc(-c2ccccc2)c1-c1nn(-c2cccc(C(F)(F)F)c2)ccc1=O
67 | 152 | Cc1cccc(Cn2c(NC3CCN(CCO)CC3)nc3cccnc32)n1
68 | 144 to 146 | CCC(CC)(c1ccccc1F)c1c[nH]c2c(NS(C)(=O)=O)cccc12
69 | 139 to 140 | CCOC(=O)c1cccc(C=C(C(=O)O)c2ccccc2)c1
70 | 70 | C[Si](C)(C)CCOCn1ccnc1-c1c(N)n(CC2CC2)c2nc(Cl)ccc2c1=O
71 | 190 to 192 | CC(=O)[NH+]([O-])C[C@@H]1CN(c2ccc(N3CCN(S(=O)(=O)c4ccccc4C#N)CC3)c(F)c2)C(=O)O1 (stereo not given in full)
72 | 106 to 107 | N#CCCN1CCOC(c2ccccc2)(c2ccccc2)CC1
73 | 191 to 193 | CN1N=C2C(=Cc3ccccc3)CN(C(N)=O)CC2C1c1ccccc1 (stereo not given)
74 | 154 | C=CCc1cc2c(c(CC=C)c1O)CCC(=O)N2c1ccc(OC)cc1
75 | 110 to 112 | COC(=O)c1ccc(CN2C(=O)C(CCOc3ccc(CCNC(=O)OC(C)(C)C)cc3)Oc3ccccc32)cc1 (stereo not given)
76 | 121 to 122 | COc1ccc(C=O)c2cccnc12
77 | 149 | CC(C)Oc1cc(CCCNC(=O)NS(=O)(=O)c2ccccc2)n(Cc2ccc(Cl)cc2Cl)n1
78 | 49 to 54 | C=CCNc1nc(-c2ccccc2)ncc1C(=O)OCC
79 | 179 to 180 | O=C(Nc1cccc(CN2C(=O)[C@H]3CCC[C@H]3Nc3ccccc32)c1)OCc1ccccc1 (relative stereo)
80 | 139 to 140 | CCc1nc(/C=C/c2cn(-c3ccccc3)nc2OCc2ccc(OCc3nc(-c4cccc(-c5noc(=O)[nH]5)c4)oc3C)c(OC)c2)cs1
81 | 205 | COc1ccc(-c2c(Cl)ncn2-c2ccc(S(C)(=O)=O)cc2)cc1
82 | 111 to 112 | CC(C)(C)C(=O)c1ccc(CC(=O)O)cc1

Row | melting point [°C] | SMILES
83 | 71.5 to 74.5 | O=S(=O)(Cc1ccccc1)N(c1ncc(-c2ccccc2)nc1Cc1ccccc1)S(=O)(=O)Cc1ccccc1
84 | 80 | CCCCN(CCCC)CCCOc1ccc(S(=O)(=O)c2ccccc2CC)cc1
85 | 91 to 95 | CNC(=O)N1CCN(CC(O)COc2ccccc2)CC1 (stereo not given)
86 | 130 to 135 | Cc1nc(-c2cc3c4ccccc4n(CCCCl)c3cn2)no1
87 | 122 to 124 | CCCC1(C2=CCN(C)CC2)c2ccccc2CCc2ccccc21
88 | 164 to 166 | O=CNC1=NN(c2ccc(Cl)cc2)C(c2ccccc2)C1 (stereo not given)
89 | 124 to 126 | CN(C)c1ccc(/C=C/c2ccccc2F)cc1
90 | 173 | Cc1c(Cc2cccnc2)c2ccccc2n1CCc1nnn[nH]1
91 | 164 to 165 | CCc1nnc(Cc2ccc(NC(=O)/C=C/c3cnn(C)c3-c3ccc(F)cc3)cc2)o1
92 | 92 to 97 | COc1ccc(C(C)=O)cc1NC(=O)C(C)CCl (stereo not given)
93 | 115 to 116 | CN(C)Cc1ccc(CSCCNC(=C[N+](=O)[O-])NCC(O)c2ccccc2)o1 (stereo not given)
94 | 115 | COC(=O)C1=C(C)NC(C)=C(C(=O)OCCCCCCCCBr)C1c1cccc([N+](=O)[O-])c1 (stereo not given)
95 | 180 to 187 | NC(=O)Nc1cccc(CS(=O)(=O)O)c1
96 | 108 to 110 | CC(=O)c1c(-c2ccccc2)oc(-c2ccncc2)c1C
97 | 208 to 210 | CCCCc1nc2c(N)nc3cccnc3c2n1CCNC(=O)Cc1cccc(O)c1
98 | 195 to 196 | COc1ccc(-c2c(C(=O)O)oc3cc(OCc4ccc(OCc5ccc6ccccc6n5)cc4)cc(O)c3c2=O)cc1
99 | 234 to 237 | CC(=O)Nc1ccc(-c2c(NC(C)=O)n(C)c3ccccc23)cc1
100 | 195 to 203 | CN(CCN(C)c1ccnc2c(NC(=O)c3c(Cl)cccc3Cl)cccc12)C(=O)c1cccnc1
